Results taken from patent US20170112896A1, “SMALL MOLECULE RAC OR RHO INHIBITORS” (Ohio State Innovation Foundation, priority 2014, published 2017).
Several values for one entry are separate records, joined by “and”; a condition that tells them apart may be missing. Equal values may be shown once. Square brackets hold non-standard residues; d marks the D form. Peptide text beside a SMILES is read from it. * marks the point of attachment. Lys(5-FITC)NH2 = NC(=O)[C@H](CCCCNC(=S)Nc1ccc2c(c1)C(=O)OC21c2ccc(O)cc2Oc2cc(O)ccc21)N*; FITC = O=C1OC2(c3ccc(O)cc3Oc3cc(O)ccc32)c2ccc(NC(=S)*)cc21; Phe(3,4-F2) = N[C@@H](Cc1ccc(F)c(F)c1)C(=O)O; Phe(4-F) = N[C@@H](Cc1ccc(F)cc1)C(=O)O; d2Nal = N[C@H](Cc1ccc2ccccc2c1)C(=O)O; NMeL = CN[C@@H](CC(C)C)C(=O)O; dNle = CCCC[C@@H](N)C(=O)O; Abu = CC[C@H](N)C(=O)O

Key:
[1] = target: T1, K-Ras(G12V) (Homo sapiens, UniProt P01116, G12V); test: Fluorescence anisotropy (FA) binding of FITC-labeled cyclic peptides to K-Ras; details: Table 1, resynthesized FITC-labeled library hits, read-out: KD (μM), affinity for K-Ras
T1 construct: The G12V mutant K-Ras (amino acids 1-185) was recombinantly fused to glutathione 5-transferase (GST) at its N-terminus; GST (N, cleaved yes); made in house; host or cells: Escherichia coli BL21
Method: The cells were grown at 37° C. in Luria broth supplemented with 0.05 mg/mL kanamycin to an OD600 of 0.6 when protein expression was induced by addition of IPTG for a final concentration of 1 mM. After 5 h of incubation at 30° C., the cells were harvested by centrifugation. The cell pellets were lysed by sonication in a lysis buffer (40 mM Tris-HCl, 150 mM NaCl, 0.5% Triton X-100, 5 mM (3-mercaptoethanol, pH 8.0) containing a protease inhibitor cocktail tablets (Sigma). The crude cell lysate was loaded onto a glutathione-Sepharose 4B column (GE Healthcare) and the bound GST-K-Ras was eluted with an elution buffer (50 mM Tris, pH 8.0, 10 mM glutathione). After buffer exchange into PBS, the protein was quickly frozen and stored at −80° C. To generate K-Ras without the GST tag, the GST-K-Ras protein (2 mg in PBS) was treated with 20 units of thrombin (GE Healthcare) for 16 h at 4° C. The reaction mixture was passed through a glutathione-Sepharose 4B column to remove the released GST and the resulting K-Ras protein was stored at −80° C.
(§2) For cyclic peptides derived from single library beads (library screening), K-Ras protein (non-GST fusion, 0-20 μM) was incubated with the TMR-labeled peptide (50 or 100 nM) in 20 μL, of the blocking buffer for 2.5 h at 24° C. The FA values were measured on a Molecular Devices Spectramax M5 spectrofluorimeter, with excitation and emission wavelengths at 545 and 585 nm, respectively. Equilibrium dissociation constants (KD) were determined by plotting the FA values as a function of K-Ras concentration and fitting the data to the equation
(§3) where Y is the measured anisotropy at a given K-Ras concentration x; L is the peptide concentration; Qb/Qf is the correction fact for dye-protein interaction; Amax is the maximum anisotropy at saturating K-Ras concentration; and Amin is the minimum anisotropy. FA analyses with resynthesized FITC-labeled peptides were similarly carried oμL, except that the excitation and emission wavelengths were at 494 and 520 nm, respectively.

[2] = test system: A549 lung cancer cells
[3] = test system: H1299 lung cancer cells; assay type: cell-based; details: for anti-proliferative activity against lung cancer cells (in words): MTT assay; for IC50: 72 h
Method: MTT assays (Mosmann, T. (1983) J. Immunol. Methods 65:55) were performed with H1299 lung cancer cells. One hundred μL of H1299 cells (0.5×10^5 cells/mL) were seeded in each well of a 96-well culture plate and allowed to grow overnight in Advanced RPMI medium supplemented with 10% fetal bovine serum (FBS) and 1% penicillin-streptomycin. Varying concentrations of cyclic peptide (0-25 μM) were added to the each well and the cells were incubated at 37° C. with 5% CO2 for 72 hours. Ten μL of a MTT stock solution (Roche) was added into each well. The plate was incubated at 37° C. for 4 h. Then 100 μL of SDS-HCl solubilizing buffer was added into each well, and the resulting solution was mixed thoroughly. The plate was incubated at 37° C. overnight. The absorbance of the formazan product was measured at 570 nm using a Molecular Devices Spectramax M5 plate reader. Each experiment was performed in triplicates and the cells without any peptide added were treated as control.

[4] = target: T2, Ras(G12V)-Raf RBD interaction (Homo sapiens, UniProt P01116, G12V); test: HTRF assay, inhibition of Ras-Raf RBD interaction; assay type: binding; details: for increase of Ras binding affinity by substitution: relative to parent 9A5/9A6
T2 construct: The G12V mutant K-Ras (amino acids 1-185) was recombinantly fused to glutathione 5-transferase (GST) at its N-terminus; GST (N, cleaved yes); made in house; host or cells: Escherichia coli BL21
Method: Recombinant HA-tagged K-Ras (no GST, 50 nM), GST-Raf RBD (50 nM each), a monoclonal anti-HA antibody labeled with acceptor d2 (2 μg/mL), a monoclonal anti-GST antibody labeled with donor Tb (0.25 μg/mL) (Cisbio), and increasing concentrations of cyclic peptide (0-20 μM) were mixed in PBS (total volume of 20 μL) in a 384-well plate. The plate was incubated overnight at 4° C. and the HTRF signal was measured on a Molecular Devices Spectramax M5 or a Tecan infinite M1000 Pro plate reader. The data were analyzed by Prism 6.0 from Graphpad Software, Inc. (La Jolla, Calif.) and IC50 values were obtained by fitting the data to dose-response-inhibition curve.

[5] = target: T3, RhoA (Homo sapiens, UniProt P61586); test: FA binding of FITC-9A5 to recombinant RhoA
T3 construct: purchased Origene (Rockville, Md.)
From the text: (§1) Reagents for peptide synthesis were purchased from Peptides International (Louisville, Ky.), NovaBiochem (La Jolla, Calif.), Anaspec (San Jose, Calif.), Chem-Impex International Inc. (Wood Dale, Ill.), or Aapptec (Lousiville, Ky.). N-Hydroxysuccinimidyl biotin was purchased from Chem-Impex International (Wood Dale, Ill.) and N-(9-fluorenylmethoxycarbonyloxy)succinimide (Fmoc-OSu) from Advanced ChemTech. Phenyl isothiocyanate (PITC), isopropyl13-D-1-thiogalactopyranoside (IPTG), protease inhibitor cocktail tablets, ampicillin and kanamycin were purchased from Sigma-Aldrich. Cell proliferation kit (MTT) was purchased from Roche (Indianapolis, Ind.). Cell culture media, fetal bovine serum, penicillin-streptomycin, 0.25% trypsin-EDTA, DPBS (2.67 mM potassium chloride, 1.47 mM potassium phosphate monobasic, 137 mM sodium chloride, 8.06 mM sodium phosphate dibasic), streptavidin-coated Dynabeads M-280, Texas red N-hydroxysuccinimide ester, and tetramethylrhodamine (TMR) azide were purchased from Invitrogen (Carlsbad, Calif.). Anti-GST-Tb and Anti-HA d2 antibodies were purchased from Cisbio (Bedford, Mass.). Recombinant K-Ras WT, H-Ras WT, Rac1, RhoA and CDC42 were purchased from Origene (Rockville, Md.). Solvents and other chemical reagents were purchased from Sigma-Aldrich or VWR (West Chester, Pa.).

[6] = target: Ras-GPPNP (Homo sapiens, UniProt P01116, G12V); test: biochemical
Method: (§4) To prepare Ras-GTP, purified K-Ras was incubated with 20 mM EDTA plus 2 mM GTP in PBS overnight at 4° C. After addition of 40 mM of MgCl2, the protein was dialyzed against PBS.
as §2
(§5) FA analyses with resynthesized FITC-labeled peptides were similarly carried oμL, except that the excitation and emission wavelengths were at 494 and 520 nm, respectively.

[7] = target: T4, bovine serum albumin (Bos taurus, UniProt P02769); test: FA binding of FITC-9A5 to control protein BSA
T4 construct: from tissue; host or cells: bovine serum (from the name only)
Method: The FA values were measured on a Molecular Devices Spectramax M5 spectrofluorimeter, with excitation and emission wavelengths at 545 and 585 nm, respectively. Equilibrium dissociation constants (KD) were determined by plotting the FA values as a function of K-Ras concentration and fitting the data to the equation
as §3

[8] = target: T5, Rac1 (Homo sapiens, UniProt P63000); test: FA binding of FITC-9A5 to recombinant Rac1
T5 construct: purchased Origene (Rockville, Md.)
From the text: as §1

[9] = target: T6, H-Ras(WT) (Homo sapiens, UniProt P01112); test: FA binding of FITC-9A5 to H-Ras; details: FITC-labeled peptide
T6 construct: purchased Origene (Rockville, Md.)
From the text: as §1

[10] = target: Ras-GDP (Homo sapiens, UniProt P01116, G12V); test: biochemical
Method: as §4, §2, §5

[11] = target: Ras-GTP (Homo sapiens, UniProt P01116, G12V); test: biochemical
Chain of Ras-GTP (P01116 1-185 isoform P01116-2 G12V): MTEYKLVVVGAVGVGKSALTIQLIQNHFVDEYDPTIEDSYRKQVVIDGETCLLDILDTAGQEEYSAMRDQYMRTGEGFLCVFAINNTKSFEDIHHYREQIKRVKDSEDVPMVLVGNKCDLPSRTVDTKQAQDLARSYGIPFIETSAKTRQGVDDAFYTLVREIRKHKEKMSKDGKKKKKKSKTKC
Method: as §4, §2, §5

T1 sequence (P01116 1-185 isoform P01116-2 G12V): as above
T2 sequence (P01116 1-185 isoform P01116-2 G12V): as above
T4 sequence (P02769 25-607): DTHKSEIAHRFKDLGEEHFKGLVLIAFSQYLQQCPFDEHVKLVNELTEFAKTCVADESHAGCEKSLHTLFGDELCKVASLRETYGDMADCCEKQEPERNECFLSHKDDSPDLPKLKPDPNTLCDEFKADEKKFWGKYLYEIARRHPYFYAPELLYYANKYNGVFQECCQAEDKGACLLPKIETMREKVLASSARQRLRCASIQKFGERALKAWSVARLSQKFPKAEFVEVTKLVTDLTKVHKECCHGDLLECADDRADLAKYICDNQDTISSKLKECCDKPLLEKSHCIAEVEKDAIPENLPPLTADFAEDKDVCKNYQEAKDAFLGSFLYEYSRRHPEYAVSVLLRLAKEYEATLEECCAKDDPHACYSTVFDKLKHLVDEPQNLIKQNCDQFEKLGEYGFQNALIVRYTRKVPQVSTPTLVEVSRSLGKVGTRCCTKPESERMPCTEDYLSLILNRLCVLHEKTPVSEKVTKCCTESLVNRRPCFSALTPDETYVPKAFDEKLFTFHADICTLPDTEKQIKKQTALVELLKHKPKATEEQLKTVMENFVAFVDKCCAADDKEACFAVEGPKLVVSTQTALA
T3 sequence (P61586 whole entry): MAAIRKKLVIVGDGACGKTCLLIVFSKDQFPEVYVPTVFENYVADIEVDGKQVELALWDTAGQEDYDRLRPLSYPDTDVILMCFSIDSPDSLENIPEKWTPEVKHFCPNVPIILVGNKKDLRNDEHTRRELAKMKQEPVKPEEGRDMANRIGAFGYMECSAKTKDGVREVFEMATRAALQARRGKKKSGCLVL
Chain of Ras-GDP (P01116 1-185 isoform P01116-2 G12V): as the sequence (P01116 1-185 isoform P01116-2 G12V) above
Chain of Ras-GPPNP (P01116 1-185 isoform P01116-2 G12V): as above
T6 sequence (P01112 whole entry): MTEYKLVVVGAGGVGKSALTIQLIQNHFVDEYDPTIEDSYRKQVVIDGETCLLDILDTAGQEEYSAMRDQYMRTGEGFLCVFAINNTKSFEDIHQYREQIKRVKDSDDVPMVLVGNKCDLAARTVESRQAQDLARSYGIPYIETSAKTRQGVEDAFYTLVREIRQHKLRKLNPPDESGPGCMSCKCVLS

SMILES: CC(C)[C@H]1NC(=O)[C@H](Cc2ccc(O)cc2)NC(=O)[C@H](CCCNC(=N)N)NC(=O)[C@H](Cc2ccc(F)cc2)NC(=O)[C@H](CCCNC(=N)N)NC(=O)[C@@H](Cc2ccc3ccccc3c2)NC(=O)[C@H](CCCNC(=N)N)NC(=O)[C@H](CCCNC(=N)N)NC(=O)[C@H](CCC(=O)N[C@@H](CCCCNC(=S)Nc2ccc3c(c2)C(=O)OC32c3ccc(O)cc3Oc3cc(O)ccc32)C(N)=O)NC(=O)[C@H](Cc2ccc(F)cc2)NC1=O [Cyclorasin 7A] (cyclo(E(Lys(5-FITC)NH2)RR[d2Nal]R[Phe(4-F)]RY[dV][Phe(4-F)]))
- Kd [1]: 0.88 ± 0.27 µM

SMILES: C[C@H]1NC(=O)[C@H](CCCNC(=N)N)NC(=O)[C@H](Cc2c[nH]c3ccccc23)NC(=O)[C@H](CCCNC(=N)N)NC(=O)[C@H](Cc2ccc(F)cc2)NC(=O)[C@H](CCCNC(=N)N)NC(=O)[C@@H](Cc2ccc3ccccc3c2)NC(=O)[C@H](CCCNC(=N)N)NC(=O)[C@H](CCCNC(=N)N)NC(=O)[C@H](CCC(N)=O)NC1=O [Cyclorasin 12A, (Arg-Arg-nal-Arg-Fpa-Arg-Trp-Arg-ala-Gln)] (cyclo(RR[d2Nal]R[Phe(4-F)]RWR[dA]Q))
- cell permeability / intracellular fluorescence [2]: cell permeable
- anti-proliferative activity against lung cancer cells (in words) [3]: weak anti-proliferative activity

SMILES: C[C@H]1NC(=O)[C@H]([C@@H](C)O)NC(=O)[C@H](Cc2c[nH]c3ccccc23)NC(=O)[C@H](CCC(N)=O)NC(=O)[C@@H](CCCNC(=N)N)NC(=O)[C@H](Cc2ccc(F)cc2)NC(=O)[C@H](CCCNC(=N)N)NC(=O)[C@@H](Cc2ccc3ccccc3c2)NC(=O)[C@H](CCCNC(=N)N)NC(=O)[C@H](CCCNC(=N)N)NC(=O)[C@H](CCCNC(=N)N)NC1=O [Cyclorasin 9A45] (cyclo(WT[dA]RRR[d2Nal]R[Phe(4-F)][dR]Q))
- IC50 [3]: 8900 ± 2100 nM
- increase of Ras binding affinity by substitution [4]: 4 fold

SMILES: CCCC[C@H]1NC(=O)[C@H](Cc2ccc(F)c(F)c2)NC(=O)[C@H](CCCNC(=N)N)NC(=O)[C@@H](Cc2ccc3ccccc3c2)NC(=O)[C@H](CCCNC(=N)N)NC(=O)[C@H](CCCNC(=N)N)NC(=O)[C@H](CCCNC(=N)N)NC(=O)[C@@H](C)NC(=O)[C@H]([C@@H](C)O)NC(=O)[C@H](Cc2c[nH]c3ccccc23)NC(=O)[C@H](CCC(N)=O)NC1=O [Cyclorasin 9A43] (cyclo(WT[dA]RRR[d2Nal]R[Phe(3,4-F2)][dNle]Q))
- IC50 [3]: 6900 ± 800 nM
- increase of Ras binding affinity by substitution [4]: 2 fold

SMILES: CCCC[C@H]1NC(=O)[C@H](Cc2ccc(F)cc2)NC(=O)[C@H](CCCNC(=N)N)NC(=O)[C@@H](Cc2ccc3ccccc3c2)NC(=O)[C@H](CCCNC(=N)N)NC(=O)[C@H](CCCNC(=N)N)NC(=O)[C@H](CCC(=O)N[C@@H](CCCCNC(=S)Nc2ccc3c(c2)C(=O)OC32c3ccc(O)cc3Oc3cc(O)ccc32)C(N)=O)NC(=O)[C@@H](C)NC(=O)[C@H]([C@@H](C)O)NC(=O)[C@H](Cc2c[nH]c3ccccc23)NC(=O)[C@@H](CO)NC1=O [Cyclorasin 9A, (Arg-Arg-nal-Arg-Fpa-nle-ser-Trp-Thr-ala-Gln)] (cyclo(RR[d2Nal]R[Phe(4-F)][dNle][dS]WT[dA]E(Lys(5-FITC)NH2)))
- cell permeability / intracellular fluorescence [2]: cell permeable
- IC50 [3]: 18000 ± 4000 nM
- anti-proliferative activity against lung cancer cells (in words) [3]: weak anti-proliferative activity

SMILES: CCCC[C@H]1NC(=O)[C@H](Cc2ccc(F)cc2)NC(=O)[C@H](CCCNC(=N)N)NC(=O)[C@@H](Cc2ccc3ccccc3c2)NC(=O)[C@H](CCCCNC(=S)Nc2ccc3c(c2)C(=O)OC32c3ccc(O)cc3Oc3cc(O)ccc32)NC(=O)[C@H](CCCNC(=N)N)NC(=O)[C@H](CCCNC(=N)N)NC(=O)[C@@H](C)NC(=O)[C@H]([C@@H](C)O)NC(=O)[C@H](Cc2c[nH]c3ccccc23)NC(=O)[C@H](CCC(N)=O)NC1=O [FITC-9A5] (cyclo(K(FITC)[d2Nal]R[Phe(4-F)][dNle]QWT[dA]RR))
- cell permeability / intracellular fluorescence [2]: intense, defuse fluorescence throughout the cytoplasm
- Kd [5]: 180 nM
- Kd [6]: 640 nM
- Kd [7]: 30000 nM and 31000 nM
- Kd [8]: 250 nM
- Kd [9]: 500 nM
- Kd [10]: 2500 nM
- Kd [11]: 440 nM

SMILES: CC(C)C[C@H]1C(=O)N[C@@H](CCC(=O)N[C@@H](CCCCNC(=S)Nc2ccc3c(c2)C(=O)OC32c3ccc(O)cc3Oc3cc(O)ccc32)C(N)=O)C(=O)N[C@@H](CCCNC(=N)N)C(=O)N[C@@H](CCCNC(=N)N)C(=O)N[C@H](Cc2ccc3ccccc3c2)C(=O)N[C@@H](CCCNC(=N)N)C(=O)N[C@@H](Cc2ccc(F)cc2)C(=O)N[C@H](CC(N)=O)C(=O)N[C@H](Cc2ccc3ccccc3c2)C(=O)N1C [Cyclorasin 3A] (cyclo(E(Lys(5-FITC)NH2)RR[d2Nal]R[Phe(4-F)][dN][d2Nal][NMeL]))
- Kd [1]: 0.91 ± 0.23 µM

SMILES: CC[C@@H]1NC(=O)[C@@H](Cc2ccccc2)NC(=O)[C@H](Cc2ccc(F)cc2)NC(=O)[C@@H](CC(N)=O)NC(=O)[C@H](Cc2ccc(F)cc2)NC(=O)[C@H](CCCNC(=N)N)NC(=O)[C@@H](Cc2ccc3ccccc3c2)NC(=O)[C@H](CCCNC(=N)N)NC(=O)[C@H](CCCNC(=N)N)NC(=O)[C@H](CCC(=O)N[C@@H](CCCCNC(=S)Nc2ccc3c(c2)C(=O)OC32c3ccc(O)cc3Oc3cc(O)ccc32)C(N)=O)NC1=O [Cyclorasin 13A] (cyclo([Abu]E(Lys(5-FITC)NH2)RR[d2Nal]R[Phe(4-F)][dN][Phe(4-F)][dF]))
- Kd [1]: 1 ± 0.2 µM

SMILES: CCCC[C@H]1NC(=O)[C@H](Cc2ccc(F)cc2)NC(=O)[C@H](CCCNC(=N)N)NC(=O)[C@@H](Cc2ccc3ccccc3c2)NC(=O)[C@H](CCCNC(=N)N)NC(=O)[C@H](CCCNC(=N)N)NC(=O)[C@@H](CCCNC(=N)N)NC(=O)[C@@H](C)NC(=O)[C@H]([C@@H](C)O)NC(=O)[C@H](Cc2c[nH]c3ccccc23)NC(=O)[C@H](CCC(N)=O)NC1=O [Cyclorasin 9A6] (cyclo(WT[dA][dR]RR[d2Nal]R[Phe(4-F)][dNle]Q))
- cell permeability / intracellular fluorescence [2]: improved cell permeability
- higher potency than 9A1 against K-Ras ([4]; relative to 9A1): 3 fold
